Where two headings read alike, the source gives them in different places. Residues, ends and D or L forms follow the SMILES beside them. No end group written: not given here. *: point of attachment. Stearoyl = CCCCCCCCCCCCCCCCCC(=O)*
Legend:
[1] = test system: influenza virus A/Puerto Rico/8/34 strain (H1N1)
[2] = test system: influenza virus A/Aichi/2/68 strain (H3N2)
[3] = test system: hemagglutinin (immobilized H3N2); experiment: Biacore binding of synthetic peptides to H3N2 immobilized on Sensor Chip CM5; set-up: species or system influenza virus type A A/Wuhan/359/95 (H3N2); conditions: for order of binding strength to hemagglutinin: Biacore; for relative value of resonance (amount of binding) with A-1 taken as 1: peptide concentration 200 μM
[4] = test system: hemagglutinin (HA), ether extract of type A subtype H3 A/Wuhan/359/95 (H3N2); experiment: Phage ELISA, binding of peptide-presenting phages to immobilized hemagglutinin (H3N2); set-up: species or system influenza virus type A A/Wuhan/359/95 (H3N2)
[5] = molecular target: hemagglutinin (HA), ether extract of type A subtype H1 A/PR/8/34 (H1N1) (Influenza A virus, UniProt P03452)
Sequence of hemagglutinin (HA), ether extract of type A subtype H1 A/PR/8/34 (H1N1) (P03452 18-565): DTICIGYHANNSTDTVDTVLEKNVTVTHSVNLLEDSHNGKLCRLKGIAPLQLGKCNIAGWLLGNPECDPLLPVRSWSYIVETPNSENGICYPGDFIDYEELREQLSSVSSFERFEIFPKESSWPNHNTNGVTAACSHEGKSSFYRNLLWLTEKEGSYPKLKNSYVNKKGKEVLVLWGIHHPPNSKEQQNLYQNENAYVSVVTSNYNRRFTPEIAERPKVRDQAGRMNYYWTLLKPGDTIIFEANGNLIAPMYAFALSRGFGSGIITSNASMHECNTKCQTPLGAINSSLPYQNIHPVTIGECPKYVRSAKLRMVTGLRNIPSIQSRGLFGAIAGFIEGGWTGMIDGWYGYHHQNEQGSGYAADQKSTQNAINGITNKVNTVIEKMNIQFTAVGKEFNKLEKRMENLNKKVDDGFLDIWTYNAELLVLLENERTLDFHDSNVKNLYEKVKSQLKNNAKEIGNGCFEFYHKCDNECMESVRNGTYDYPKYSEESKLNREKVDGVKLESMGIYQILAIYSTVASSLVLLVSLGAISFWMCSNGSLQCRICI

[6] = influenza virus A/Puerto Rico/8/34 strain
[7] = influenza virus A/Aichi/2/68 strain
[8] = read-out: IC50(μM) H1, Table 4, MDCK cells, plaque assay, H1N1
[9] = read-out: IC50(μM) H3, Table 4, MDCK cells, plaque assay, H3N2

| Compound | IC50 [1, 6] | IC50 [2, 7] | inhibition of H1N1 influenza virus infection (in words) ([1]; MDCK cells, plaque assay) | inhibition of H3N2 influenza virus infection (in words) ([2]; MDCK cells, plaque assay) | other results |
| --- | --- | --- | --- | --- | --- |
| CCCCCCCCCCCCCCCCCC(=O)N[C@@H](C)C(=O)N[C@@H](CCCNC(=N)N)C(=O)N[C@@H](CC(C)C)C(=O)N[C@@H](CO)C(=O)N1CCC[C@H]1C(=O)N[C@H](C(=O)N[C@@H](CCSC)C(=O)N[C@H](C(=O)N[C@@H](Cc1c[nH]cn1)C(=O)N1CCC[C@H]1C(=O)N[C@@H](CC(N)=O)C(=O)NCC(=O)N[C@@H](C)C(=O)N[C@@H](CCC(N)=O)C(=O)N1CCC[C@H]1C(N)=O)C(C)C)[C@@H](C)O [C18-A1, C18-ARLSPTMVHPNGAQP, reference compound] (Stearoyl-ARLSPTMVHPNGAQP-NH2) | 195 µM | 365 µM |  |  |  |
| CCCCCCCCCCCCCCCCCC(=O)N[C@@H](C)C(=O)N[C@@H](CCCNC(=N)N)C(N)=O [C18-s2(1-2), C18-AR] (Stearoyl-Ala-Arg-NH2) |  |  | unable to inhibit infection | unable to inhibit infection | IC50 [1, 8]: > 100 µM; IC50 [2, 9]: > 100 µM |
| CCCCCCCCCCCCCCCCCC(=O)N[C@@H](C)C(=O)N[C@@H](CCCNC(=N)N)C(=O)N[C@@H](CC(C)C)C(N)=O [C18-s2(1-3), C18-ARL] | > 100 µM | > 100 µM | unable to inhibit infection | unable to inhibit infection |  |
| CCCCCCCCCCCCCCCCCC(=O)N[C@@H](C)C(=O)N[C@@H](CCCNC(=N)N)C(=O)N[C@@H](CC(C)C)C(=O)N1CCC[C@H]1C(N)=O [C18-s2(1-4), C18-ARLP] (Stearoyl-ARLP-NH2) | 0.9 µM | 21 µM | more strongly than C18-S2 peptide | as strongly as, or more strongly than, C18-S2 peptide |  |
| CCCCCCCCCCCCCCCCCC(=O)N[C@@H](C)C(=O)N[C@@H](CCCNC(=N)N)C(=O)N[C@@H](CC(C)C)C(=O)N[C@@H](C)C(N)=O [C18-s2(1-4)P4A, C18-ARLA] (Stearoyl-ARLA-NH2) | > 100 µM | > 100 µM |  |  |  |
| CCCCCCCCCCCCCCCCCC(=O)N[C@@H](C)C(=O)N[C@@H](CCCNC(=N)N)C(=O)N[C@@H](CC(C)C)C(=O)N1CCC[C@H]1C(=O)N[C@@H](CCCNC(=N)N)C(N)=O [C18-s2(1-5), C18-ARLPR] (Stearoyl-ARLPR-NH2) |  |  | more strongly than C18-S2 peptide | as strongly as, or more strongly than, C18-S2 peptide | IC50 [1, 8]: 3.1 µM; IC50 ([1]; read-out: IC50(μM) H1, Table 5, MDCK cells, plaque assay, H1N1): 0.35 µM; IC50 [2, 9]: 3 µM; IC50 ([2]; read-out: IC50(μM) H3, Table 5, MDCK cells, plaque assay, H3N2): 1.55 µM |
| CCCCCCCCCCCCCCCCCC(=O)N[C@@H](C)C(=O)N[C@@H](CCCNC(=N)N)C(=O)N[C@@H](CC(C)C)C(=O)N1CCC[C@H]1C(=O)N[C@@H](CCCNC(=N)N)C(=O)N[C@H](C(N)=O)[C@@H](C)O [C18-s2(1-6), C18-ARLPRT] (Stearoyl-ARLPRT-NH2) |  |  | more strongly than C18-S2 peptide | as strongly as, or more strongly than, C18-S2 peptide | IC50 [1, 8]: 3.5 µM; IC50 [2, 9]: 5 µM |
| CCCCCCCCCCCCCCCCCC(=O)N[C@@H](C)C(=O)N[C@@H](CCCNC(=N)N)C(=O)N[C@@H](CC(C)C)C(=O)N1CCC[C@H]1C(=O)N[C@@H](CCCNC(=N)N)C(=O)N[C@H](C(=O)N[C@@H](CCSC)C(N)=O)[C@@H](C)O [C18-s2(1-7), C18-ARLPRTM] (Stearoyl-ARLPRTM-NH2) |  |  | more strongly than C18-S2 peptide | as strongly as, or more strongly than, C18-S2 peptide | IC50 [1, 8]: 7.1 µM; IC50 [2, 9]: 9.1 µM |
| CCCCCCCCCCCCCCCCCC(=O)N[C@@H](C)C(=O)N[C@@H](CCCNC(=N)N)C(=O)N[C@@H](CC(C)C)C(=O)N1CCC[C@H]1C(=O)N[C@@H](CCCNC(=N)N)C(=O)N[C@H](C(=O)N[C@@H](CCSC)C(=O)N[C@H](C(N)=O)C(C)C)[C@@H](C)O [C18-s2(1-8), C18-ARLPRTMV] (Stearoyl-ARLPRTMV-NH2) |  |  | more strongly than C18-S2 peptide | as strongly as, or more strongly than, C18-S2 peptide | IC50 [1, 8]: 2.4 µM; IC50 [2, 9]: 1.4 µM |
| CCCCCCCCCCCCCCCCCC(=O)N[C@@H](CCCNC(=N)N)C(=O)N[C@@H](CC(C)C)C(=O)N1CCC[C@H]1C(=O)N[C@@H](CCCNC(=N)N)C(=O)N[C@H](C(=O)N[C@@H](CCSC)C(=O)N[C@H](C(N)=O)C(C)C)[C@@H](C)O [C18-s2(2-8), C18-RLPRTMV] (Stearoyl-RLPRTMV-NH2) |  |  | as strongly as, or more strongly than, C18-S2 peptide |  | IC50 [1, 8]: 9.2 µM; IC50 [2, 9]: > 100 µM |
| CCCCCCCCCCCCCCCCCC(=O)N[C@@H](CC(C)C)C(=O)N1CCC[C@H]1C(=O)N[C@@H](CCCNC(=N)N)C(=O)N[C@H](C(=O)N[C@@H](CCSC)C(=O)N[C@H](C(N)=O)C(C)C)[C@@H](C)O [C18-s2(3-8), C18-LPRTMV] (Stearoyl-LPRTMV-NH2) | > 100 µM |  |  |  |  |
| CCCCCCCCCCCCCCCCCC(=O)N1CCC[C@H]1C(=O)N[C@@H](CCCNC(=N)N)C(=O)N[C@H](C(=O)N[C@@H](CCSC)C(=O)N[C@H](C(N)=O)C(C)C)[C@@H](C)O [C18-s2(4-8), C18-PRTMV] (Stearoyl-PRTMV-NH2) | > 100 µM |  |  |  |  |
| CCCCCCCCCCCCCCCCCC(=O)N[C@@H](CCCNC(=N)N)C(=O)N[C@H](C(=O)N[C@@H](CCSC)C(=O)N[C@H](C(=O)N[C@@H](Cc1c[nH]cn1)C(=O)N1CCC[C@H]1C(=O)N[C@@H](CCCCN)C(N)=O)C(C)C)[C@@H](C)O [C18-s2(5-11), C18-RTMVHPK] (Stearoyl-RTMVHPK-NH2) | 11 µM | > 100 µM |  |  |  |
| CCCCCCCCCCCCCCCCCC(=O)N[C@H](C(=O)N[C@@H](Cc1c[nH]cn1)C(=O)N1CCC[C@H]1C(=O)N[C@@H](CCCCN)C(=O)N1CCC[C@H]1C(=O)N[C@@H](C)C(=O)N[C@@H](CCC(N)=O)C(=O)N1CCC[C@H]1C(N)=O)C(C)C [C18-s2(8-15), C18-VHPKPAQP] (Stearoyl-VHPKPAQP-NH2) | 59 µM | 10.5 µM |  |  |  |
| CCCCCCCCCCCCCCCCCC(=O)N1CCC[C@H]1C(=O)N[C@@H](CC(C)C)C(=O)N[C@@H](CCCNC(=N)N)C(=O)N[C@@H](C)C(N)=O [C18-s2(r1-4), C18-PLRA] (Stearoyl-PLRA-NH2) | 0.41 µM | 14 µM | more strongly than C18-s2 (r1-8) | more strongly than C18-s2 (r1-8) |  |
| CCCCCCCCCCCCCCCCCC(=O)N[C@@H](CCCNC(=N)N)C(=O)N1CCC[C@H]1C(=O)N[C@@H](CC(C)C)C(=O)N[C@@H](CCCNC(=N)N)C(=O)N[C@@H](C)C(N)=O [C18-s2(r1-5), C18-RPLRA] (Stearoyl-RPLRA-NH2) | 0.55 µM | 0.94 µM | more strongly than C18-s2 (r1-8) | more strongly than C18-s2 (r1-8) |  |
| CCCCCCCCCCCCCCCCCC(=O)N[C@H](C(=O)N[C@@H](CCSC)C(=O)N[C@H](C(=O)N[C@@H](CCCNC(=N)N)C(=O)N1CCC[C@H]1C(=O)N[C@@H](CC(C)C)C(=O)N[C@@H](CCCNC(=N)N)C(=O)N[C@@H](C)C(N)=O)[C@@H](C)O)C(C)C [C18-s2(r1-8), C18-VMTRPLRA] (Stearoyl-VMTRPLRA-NH2) | 93 µM | 226 µM |  |  |  |
| CCCCCCCCCCCCCCCCCC(=O)N[C@@H](C)C(=O)N[C@@H](CCCNC(=N)N)C(=O)N[C@@H](CC(C)C)C(=O)N1CCC[C@H]1C(=O)N[C@@H](CCCNC(=N)N)C(=O)N[C@H](C(=O)N[C@@H](CCSC)C(=O)N[C@H](C(=O)N[C@@H](Cc1c[nH]cn1)C(=O)N1CCC[C@H]1C(=O)N[C@@H](CCCCN)C(=O)N1CCC[C@H]1C(=O)N[C@@H](C)C(=O)N[C@@H](CCC(N)=O)C(=O)N1CCC[C@H]1C(N)=O)C(C)C)[C@@H](C)O [C18-s2, C18-ARLPRTMVHPKPAQP] (Stearoyl-ARLPRTMVHPKPAQP-NH2) | 10 µM | 8.2 µM |  |  |  |
| AEGDDPAKAAFDSLQ-NH2 [pVIII, reference compound] |  |  |  |  | order of binding strength to hemagglutinin [3]: s-2>e-1>A-1>pVIII |
| ARLPPTMVRPNGPQP-NH2 [e-1] |  |  |  |  | order of binding strength to hemagglutinin [3]: s-2>e-1>A-1>pVIII; relative value of resonance (amount of binding) with A-1 taken as 1 [3]: 1.2 fold |
| ARLPRTMVHPKPAQP-NH2 [s-2] |  |  |  |  | order of binding strength to hemagglutinin [3]: s-2>e-1>A-1>pVIII; relative value of resonance (amount of binding) with A-1 taken as 1 [3]: 2.1 fold; binding activity to hemagglutinin relative to A-1 (A-1 taken as 1) [4]: about 3 fold; binding activity to hemagglutinin relative to A-1 (A-1 taken as 1) [5]: about 3 fold |

Source: patent publication US8299214B2 (priority 2006, dated 2012)
